{"source": "patent US9055741B2", "about": "“Contacting crop plants with compositions” (Rohm and Haas Company, priority 2006, dated 2015)", "format_in_all_cases": "in vivo", "key": {"cotton": {"test_system": "cotton", "experiment": "Cotton field treatment: lint yield", "conditions": "UTC 228.0, Adjuvant 1 only 245.1", "procedure": "(§1) Spray tank was filled with approximately two-thirds of the total volume of water required. The amount of Powder 1 or Powder 2 was weighed according to the rate and total volume of spray being prepared. The appropriate amount of was calculated to give 1% v/v of total spray volume. Adjuvant 1 was added to the spray tank, which was agitated until the mixture turned milky white. Powder 1 or Powder 2 was added to the spray container, which was then gently (not vigorously) agitated. The remaining water was added, making sure all of the powder was wet and washed off of the sides of the tank (if any had deposited there). The spray tank was then swirled or stirred for at least two minutes (2-5 minutes) to ensure good mixing. Between 5 and 60 minutes thereafter, plants were sprayed with the mixture.\n(§2) Flat fan nozzles were used, producing droplet size of 100 to 500 micrometers. Spray rate of mixture was 500 liter per hectare. Backpack sprayer was used. Spraying was performed before 10:00 am.\nUsing methods similar to those of Example 1, cotton was also tested. Each treated group of plants was treated either two or three times, as follows:\nThe crop yield was assessed as the weight of lint per hectare. Treatment types, treatment amounts (grams of AI per hectare), and results were as follows. Many of the treatments lead to improvements in the yield of lint."}, "Fuji apple trees": {"test_system": "Fuji apple trees", "experiment": "Fuji apples: staining after harvest and storage", "conditions": "250 ppm, approximately 211 g/ha (520 g/acre) each, Untreated 12", "description": "Fuji apple trees were sprayed prior to harvest either one or two times, with spray containing 250 ppm of 1-MCP. Each spraying provided treatment of approximately 211 g/ha ([…]). After harvesting and storage, the apples were inspected for staining."}, "wheat": {"test_system": "wheat", "experiment": "Wheat field treatment: yield and frost damage", "conditions": "for Frost Damage (percentage of barren husks): untreated 21; for Yield: untreated 3890", "procedure": "as §1, §2\n(§3) Using methods similar to those of Example 1, wheat was sprayed at stage F10.5. Frost damage was assessed by examining the portion of the seed head damaged; the percentage of barren husks is reported. Damage from fusarium disease was assessed as a percentage of seed heads damaged by the disease organism."}, "fusarium disease": {"test_system": "fusarium disease", "experiment": "Wheat field treatment: damage from fusarium disease", "conditions": "untreated 6", "procedure": "as §1, §2, §3"}, "Soybean plants": {"test_system": "Soybean plants", "experiment": "Soybean crop yield and protein content", "conditions": "for Protein %: untreated 36.93/36.87; for Yield: untreated 3607.20/3687.67", "procedure": "as §1, §2\nSoybean plants were treated using methods similar to those of Example 1. Treatment was performed when the plants were at one or more of the following growth stages: R2, R3, and R5.5."}, "[1]": {"test_system": "Golden Delicious apple trees", "experiment": "Golden Delicious fruit drop after pre-harvest spray", "conditions": "NAA 20 ppm, AVG 125 ppm, Powder 1 375 g AI/ha", "procedure": "as §1, §2\nUsing methods similar to those of Example 1, Golden Delicious apple trees were sprayed one week before the apples would normally be harvested for commercial use. The apples were left on the trees to observe postharvest drop. The spray containing Powder 1 was used to give 375 gram of AI per hectare. NAA was used at 20 ppm, and AVG was used at 125 ppm. […]"}, "[2]": {"conditions": "1 g/ha, timing R2, R3, and R5.5"}, "[3]": {"conditions": "10 g/ha, timing R2, R3, and R5.5"}, "[4]": {"conditions": "30 g/ha, timing R2, R3, and R5.5"}, "[5]": {"conditions": "dosage Exaggerated 1, every 2 weeks"}, "[6]": {"conditions": "dosage Exaggerated 2, every 2 weeks"}}}
{"compound": "CC1=CC1", "note": "[1-MCP, 1-methylcyclopropene]", "values": [{"measurement": "Lint", "setting": "cotton; 250 g/ha AI, type EB 2", "result": 245.3, "unit": "kg/ha"}, {"measurement": "Lint", "setting": "cotton; 250 g/ha AI, type EB 3", "result": 250.2, "unit": "kg/ha"}, {"measurement": "Lint", "setting": "cotton; 250 g/ha AI, type PHS 2", "result": 230.6, "unit": "kg/ha"}, {"measurement": "Lint", "setting": "cotton; 250 g/ha AI, type PHS 3", "result": 231.8, "unit": "kg/ha"}, {"measurement": "Lint", "setting": "cotton; 500 g/ha AI, type EB 2", "result": 234.2, "unit": "kg/ha"}, {"measurement": "Lint", "setting": "cotton; 500 g/ha AI, type EB 3", "result": 261.3, "unit": "kg/ha"}, {"measurement": "Lint", "setting": "cotton; 500 g/ha AI, type PHS 2", "result": 257.6, "unit": "kg/ha"}, {"measurement": "Lint", "setting": "cotton; 500 g/ha AI, type PHS 3", "result": 262.0, "unit": "kg/ha"}, {"measurement": "Lint", "setting": "cotton; 1250 g/ha AI, type EB 2", "result": 235.0, "unit": "kg/ha"}, {"measurement": "Lint", "setting": "cotton; 1250 g/ha AI, type EB 3", "result": 260.7, "unit": "kg/ha"}, {"measurement": "Lint", "setting": "cotton; 1250 g/ha AI, type PHS 2", "result": 253.9, "unit": "kg/ha"}, {"measurement": "Lint", "setting": "cotton; 1250 g/ha AI, type PHS 3", "result": 241.4, "unit": "kg/ha"}, {"measurement": "% Staining", "setting": "Fuji apple trees; 1 spray application", "result": 8.5, "unit": "%"}, {"measurement": "% Staining", "setting": "Fuji apple trees; 2 spray applications", "result": 3, "unit": "%"}, {"measurement": "Frost Damage (percentage of barren husks)", "setting": "wheat; 10 g/ha AI at stage F10.5", "result": 6, "unit": "%"}, {"measurement": "Yield", "setting": "wheat; 10 g/ha AI at stage F10.5", "result": 4458, "unit": "kg dry weight/ha"}, {"measurement": "Frost Damage (percentage of barren husks)", "setting": "wheat; 25 g/ha AI at stage F10.5", "result": 3, "unit": "%"}, {"measurement": "Yield", "setting": "wheat; 25 g/ha AI at stage F10.5", "result": 4522, "unit": "kg dry weight/ha"}, {"measurement": "Disease Damage (percentage of seed heads damaged)", "setting": "fusarium disease; 10 g/ha AI at stage F10.5", "result": 0.5, "unit": "%"}, {"measurement": "Disease Damage (percentage of seed heads damaged)", "setting": "fusarium disease; 25 g/ha AI at stage F10.5", "result": 3, "unit": "%"}, {"measurement": "Protein %", "setting": "Soybean plants; [2]", "result": 38.4, "unit": "%"}, {"measurement": "Yield", "setting": "Soybean plants; [2]", "result": 3955.68, "unit": "kg/ha"}, {"measurement": "Protein %", "setting": "Soybean plants; 1 g/ha, timing R2", "result": 37.88, "unit": "%"}, {"measurement": "Yield", "setting": "Soybean plants; 1 g/ha, timing R2", "result": 3691.44, "unit": "kg/ha"}, {"measurement": "Protein %", "setting": "Soybean plants; 1 g/ha, timing R2 and R3", "result": 37.85, "unit": "%"}, {"measurement": "Yield", "setting": "Soybean plants; 1 g/ha, timing R2 and R3", "result": 3786.48, "unit": "kg/ha"}, {"measurement": "Protein %", "setting": "Soybean plants; 1 g/ha, timing R2 and R5.5", "result": 38.45, "unit": "%"}, {"measurement": "Yield", "setting": "Soybean plants; 1 g/ha, timing R2 and R5.5", "result": 3704.04, "unit": "kg/ha"}, {"measurement": "Protein %", "setting": "Soybean plants; 1 g/ha, timing R3", "result": 37.89, "unit": "%"}, {"measurement": "Yield", "setting": "Soybean plants; 1 g/ha, timing R3", "result": 3795.48, "unit": "kg/ha"}, {"measurement": "Protein %", "setting": "Soybean plants; 1 g/ha, timing R3 and R5.5", "result": 38.75, "unit": "%"}, {"measurement": "Yield", "setting": "Soybean plants; 1 g/ha, timing R3 and R5.5", "result": 3763.80, "unit": "kg/ha"}, {"measurement": "Protein %", "setting": "Soybean plants; 1 g/ha, timing R5.5", "result": 38.25, "unit": "%"}, {"measurement": "Yield", "setting": "Soybean plants; 1 g/ha, timing R5.5", "result": 3659.76, "unit": "kg/ha"}, {"measurement": "Protein %", "setting": "Soybean plants; [3]", "result": 37.87, "unit": "%"}, {"measurement": "Yield", "setting": "Soybean plants; [3]", "result": 4119.48, "unit": "kg/ha"}, {"measurement": "Protein %", "setting": "Soybean plants; 10 g/ha, timing R2", "result": 37.67, "unit": "%"}, {"measurement": "Yield", "setting": "Soybean plants; 10 g/ha, timing R2", "result": 3671.64, "unit": "kg/ha"}, {"measurement": "Protein %", "setting": "Soybean plants; 10 g/ha, timing R2 and R3", "result": 38.27, "unit": "%"}, {"measurement": "Yield", "setting": "Soybean plants; 10 g/ha, timing R2 and R3", "result": 3872.84, "unit": "kg/ha"}, {"measurement": "Protein %", "setting": "Soybean plants; 10 g/ha, timing R2 and R5.5", "result": 38.63, "unit": "%"}, {"measurement": "Yield", "setting": "Soybean plants; 10 g/ha, timing R2 and R5.5", "result": 3817.80, "unit": "kg/ha"}, {"measurement": "Protein %", "setting": "Soybean plants; 10 g/ha, timing R3", "result": 38.64, "unit": "%"}, {"measurement": "Yield", "setting": "Soybean plants; 10 g/ha, timing R3", "result": 3757.68, "unit": "kg/ha"}, {"measurement": "Protein %", "setting": "Soybean plants; 10 g/ha, timing R3 and R5.5", "result": 38.3, "unit": "%"}, {"measurement": "Yield", "setting": "Soybean plants; 10 g/ha, timing R3 and R5.5", "result": 3791.52, "unit": "kg/ha"}, {"measurement": "Protein %", "setting": "Soybean plants; 10 g/ha, timing R5.5", "result": 38.32, "unit": "%"}, {"measurement": "Yield", "setting": "Soybean plants; 10 g/ha, timing R5.5", "result": 3721.32, "unit": "kg/ha"}, {"measurement": "Protein %", "setting": "Soybean plants; [4]", "result": 37.48, "unit": "%"}, {"measurement": "Yield", "setting": "Soybean plants; [4]", "result": 4347.00, "unit": "kg/ha"}, {"measurement": "Protein %", "setting": "Soybean plants; 30 g/ha, timing R2", "result": 38.08, "unit": "%"}, {"measurement": "Yield", "setting": "Soybean plants; 30 g/ha, timing R2", "result": 3702.24, "unit": "kg/ha"}, {"measurement": "Protein %", "setting": "Soybean plants; 30 g/ha, timing R2 and R3", "result": 36.73, "unit": "%"}, {"measurement": "Yield", "setting": "Soybean plants; 30 g/ha, timing R2 and R3", "result": 4118.76, "unit": "kg/ha"}, {"measurement": "Protein %", "setting": "Soybean plants; 30 g/ha, timing R2 and R5.5", "result": 38.56, "unit": "%"}, {"measurement": "Yield", "setting": "Soybean plants; 30 g/ha, timing R2 and R5.5", "result": 3844.44, "unit": "kg/ha"}, {"measurement": "Protein %", "setting": "Soybean plants; 30 g/ha, timing R3", "result": 38.33, "unit": "%"}, {"measurement": "Yield", "setting": "Soybean plants; 30 g/ha, timing R3", "result": 3747.24, "unit": "kg/ha"}, {"measurement": "Protein %", "setting": "Soybean plants; 30 g/ha, timing R3 and R5.5", "result": 37.87, "unit": "%"}, {"measurement": "Yield", "setting": "Soybean plants; 30 g/ha, timing R3 and R5.5", "result": 3946.68, "unit": "kg/ha"}, {"measurement": "Protein %", "setting": "Soybean plants; 30 g/ha, timing R5.5", "result": 37.58, "unit": "%"}, {"measurement": "Yield", "setting": "Soybean plants; 30 g/ha, timing R5.5", "result": 3817.80, "unit": "kg/ha"}, {"measurement": "Protein %", "setting": "Soybean plants; [5]", "result": 38.62, "unit": "%"}, {"measurement": "Yield", "setting": "Soybean plants; [5]", "result": 3923.64, "unit": "kg/ha"}, {"measurement": "Protein %", "setting": "Soybean plants; [6]", "result": 37.89, "unit": "%"}, {"measurement": "Yield", "setting": "Soybean plants; [6]", "result": 4167.00, "unit": "kg/ha"}]}
{"compound": "O=C(O)Cc1cccc2ccccc12", "note": "[NAA, 1-naphthaleneacetic acid]", "values": [{"measurement": "number of dropped fruit per tree", "setting": "[1]; day 0 after treatment, UTC 0", "result": 0}, {"measurement": "number of dropped fruit per tree", "setting": "[1]; day 7 after treatment, UTC 18", "result": 5}, {"measurement": "number of dropped fruit per tree", "setting": "[1]; day 21 after treatment, UTC 45", "result": 20}, {"measurement": "number of dropped fruit per tree", "setting": "[1]; day 28 after treatment, UTC 115", "result": 65}, {"measurement": "number of dropped fruit per tree", "setting": "[1]; day 35 after treatment, UTC 195", "result": 118}, {"measurement": "number of dropped fruit per tree", "setting": "[1]; day 62 after treatment, UTC 30", "result": 11}]}
